Target: T1, AMPA (GluR1) receptor (Homo sapiens, UniProt P42261)
T1 construct: expressed in transfected cells; host or cells: HEK cells (HEK.GluR1(i)), kept under hygromycin selection
Test: Ca2+ influx fluorescence assay (FLEXstation, Fluo-3)
Assay type: cell-based
Settings: HEK.GluR1(i) cells, glutamate +/- test compound, Ca2+ influx measured with fluo3; read-out: EC50, positive modulation of the AMPA receptor
Text: The compounds in this invention may be tested using a biological assay which measures Ca^2+ influx mediated through positive modulation of the AMPA (GluR1) receptor using standard techniques in the art such as, but not limited to, a FLEXstation (manufactured by Molecular Devices, Sunnyvale, Calif.). An optical readout using fluorescent probes is employed to measure ion channel dependent changes in intracellular ion concentration or membrane potential. The assay utilises the Ca^2+ conductance of functional homomeric GluR1(i) AMPA receptors to generate glutamate-dependent Ca^2+ responses. Influx of Ca^2+ through the ion channel is measured indirectly through an increase in intracellular Ca^2+ levels using the calcium sensitive dye such as, but not limited to, Fluo-3 (Molecular Devices, Sunnyvale, Calif.) in FLEXstation. A positive AMPA receptor modulator, in the presence of glutamate, will result in an influx of Ca^2+ through the ion channel which can be measured indirectly through an increase in intracellular Ca2+ levels using the calcium sensitive dye Fluo-3 in FLEXstation.
HEK.GluR1(i) cells were maintained in DMEM supplemented with 10% fetaclone II, 1% non-essential amino acids and 150 μg/mL hygromycin, at 37° C./5% CO2. […]

T1 sequence (P42261 19-906 isoform P42261-2 limits assumed, species assumed): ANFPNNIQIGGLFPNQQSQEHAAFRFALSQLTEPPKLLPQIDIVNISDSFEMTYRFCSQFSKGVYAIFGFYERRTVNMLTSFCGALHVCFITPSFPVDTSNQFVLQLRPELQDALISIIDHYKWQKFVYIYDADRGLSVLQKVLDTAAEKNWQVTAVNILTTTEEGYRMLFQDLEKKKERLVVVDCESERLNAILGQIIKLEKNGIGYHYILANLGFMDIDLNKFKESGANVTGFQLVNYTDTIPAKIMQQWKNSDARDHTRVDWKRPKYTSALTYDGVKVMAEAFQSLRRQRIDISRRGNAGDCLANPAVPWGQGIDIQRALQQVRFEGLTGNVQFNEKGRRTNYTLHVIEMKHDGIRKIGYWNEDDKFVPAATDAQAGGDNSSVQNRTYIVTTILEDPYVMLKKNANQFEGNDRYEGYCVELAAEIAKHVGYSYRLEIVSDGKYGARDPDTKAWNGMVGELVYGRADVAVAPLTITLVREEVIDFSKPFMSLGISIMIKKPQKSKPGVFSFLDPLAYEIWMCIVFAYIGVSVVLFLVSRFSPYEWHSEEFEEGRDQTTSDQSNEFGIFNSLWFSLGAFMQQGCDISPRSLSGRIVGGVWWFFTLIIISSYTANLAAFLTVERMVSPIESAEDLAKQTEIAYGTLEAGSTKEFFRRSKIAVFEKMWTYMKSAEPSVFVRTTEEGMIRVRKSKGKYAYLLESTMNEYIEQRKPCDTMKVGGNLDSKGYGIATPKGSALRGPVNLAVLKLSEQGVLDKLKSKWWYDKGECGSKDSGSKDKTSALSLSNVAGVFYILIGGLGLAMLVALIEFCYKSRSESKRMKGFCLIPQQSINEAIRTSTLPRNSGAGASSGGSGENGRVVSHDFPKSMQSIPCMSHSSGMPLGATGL

`O=S(=O)(N[C@H]1Cc2ccc(Cn3cc(CO)c(C(F)(F)F)n3)cc2C1)c1ccco1` [Example 18, (S)—N-(5-((4-(hydroxymethyl)-3-(trifluoromethyl)-1H-pyrazol-1-yl)methyl)-2,3-dihydro-1H-inden-2-yl)furan-2-sulfonamide] showed an EC50 of 2500 nM.

Source: patent US8536214B2, “Indane derivatives as AMPA receptor modulators” (priority 2008, dated 2013)
